Consider 2 compounds from publication PMC12064607 (Clinical Pharmacokinetics, 2025).

Where two headings read alike, the source gives them in different places.

As usually defined, the EC50 is the concentration needed to bring the measured effect to its halfway point. The term clearance denotes the volume of plasma or blood freed of the substance per unit of time. The term EC90 denotes the concentration at which the effect reaches the 90% level.

In one data set the test system is WA1. More on the design: method as in Pitts et al[4]. Particulars: A549-ACE2-TMPRSS, Nucleoprotein ELISA, ref Pitts et al[4]; cited from earlier work. For orientation: ELISA stands for enzyme-linked immunosorbent assay.
Another data set in a line: clinical. Particulars: human, in vivo.
Another data set deals with Delta. The settings on record: A549-ACE2-TMPRSS, Nucleoprotein ELISA, ref Pitts et al[4]; cited from earlier work.
For data set [1] the following is noted: plasma samples; cited from earlier work.
For data set [2] the following is noted: human, in vivo.
For another data set, the system named is Omicron/BA.2. More on the design: method as in Takashita et al[5]. The settings on record: Vero E6, Focus reduction, ref Takashita et al[5]; cited from earlier work.
The subject of data set [3] is BetaCoV/Belgium/GHB-03021/2020. Particulars: cited from earlier work.
The subject of a further data set is Omicron. Particulars: A549-ACE2-TMPRSS, Nucleoprotein ELISA, ref Pitts et al[4]; cited from earlier work.
The next data set deals with plasma protein. Particulars: cited from earlier work.
Data set [4] has as its system BetaCoV/France/IDF0571/2020. Particulars: cited from earlier work.
For data set [5] the following is noted: human, in vivo; cited from earlier work.
The subject of data set [6] is nCoV-2019BetaCoV/Wuhan/WIV04/2019. The settings on record: cited from earlier work.

As for `N#C[C@@]1(c2ccc3c(N)ncnn23)O[C@H](CO)[C@@H](O)[C@H]1O` [GS-441524], the EC50 with WA1 is 5600 nM; in the data set with Delta, 3260 nM; with Omicron/BA.2, 2850 nM; in data set [3], 510 nM; in the data set with Omicron it was 3150 nM. Further, the clearance in the data set “clinical” (CL/fm, bootstrap median) was 267 mL/min; in the data set “clinical” (CL/fm, final model mean), 265 mL/min. The “stable at room temperature” value in [1] was 48 h. Further, the “Age effect on V, bootstrap median” value in data set [2] is “–1.18”. Also, the “Age effect on V, final model mean” value in [2] is reported as “–1.15”. Besides, the “V/fm, bootstrap median” value in [2] stood at 429 L. The “V/fm, final model mean” value in data set [2] is 429 L. Further, in data set [2], the “eGFR effect on CL, bootstrap median” value is recorded as 1.23. In data set [2], the “eGFR effect on CL, final model mean” value is given as 1.12. In addition, in the data set on plasma protein, the protein binding is recorded as 2%.
`CCC(CC)COC(=O)[C@H](C)N[P@](=O)(OC[C@H]1O[C@@](C#N)(c2ccc3c(N)ncnn23)[C@H](O)[C@@H]1O)Oc1ccccc1` [Remdesivir, reference compound]: the EC50 was 990 nM in data set [4]; 70 nM with Delta; 770 nM in data set [6]; 48 nM in data set [3]; 42 nM in the data set on Omicron. Also, the clearance in data set [5] is 207 L/h; in the data set “clinical” (CL, bootstrap median) it was 1670 mL/min; in the data set “clinical” (iv, CL, final model mean), 1600 mL/min. Moreover, the “V, bootstrap median” value in data set [2] is 111 L. In addition, the EC90 in [6] is 1760 nM. For the same compound, the protein binding in the data set with plasma protein (human) is 97%.
